This is an account of results in US20060063930A1, “Compositions and methods comprising proteinase activated receptor antagonists” (priority 2004, published 2006).

Where no end group is shown, it is not given here.

The test system of the first experiment is PAR-2. Description: PAR signalling activity: calcium mobilization (Fluo-4) in response to peptide. In kind it is cell-based. The settings on record: FIGS. 2A-2C. The procedure:
Confluent HUVECs, Lewis lung carcinoma cells or U87-MG glioma cells or HT29 colon carcinoma cells were loaded for 30-60 minutes with the fluorescent dye Fluo-4. Final concentration 4 uM Fluo-4, 0.02% pluronic acid in physiological buffer. Cells were then washed with assay buffer, (HBSS containing 1 mM CaCl2, 1 mM MgSO4, and 2.5 mM probenecid). Cells were stimulated with various doses of PAR-2 activating peptide, PAR-1 activating peptide or ATP. Fluorescence was monitored using a Wallac 1470 fluorescent plate reader. (See Al-ani et. al Journal of Pharmacology and Experimental Therapeutics 290:2, 753-760)
Calcium mobilization curves of the PAR-2 agonist SLIGKV (ENMD-1003) (SEQ ID NO:52) compared with two truncated molecules LIGK (ENMD-1005) (SEQ ID NO:1) and LIGKV (ENMD-1007) (SEQ ID NO:2) are provided in FIG. 2A. […] Similar studies were performed on alanine substituted SLIGKV (ENMD-1003) (SEQ ID NO:52) peptides (FIGS. 2B and 2C).
In general terms: A change in cytosolic calcium serves as a functional read-out for many receptors and channels.
With LIGKV [ENMD-1007], the “Calcium mobilization / PAR-2 signaling activity (in words)” value is “Neither truncated molecule was able to induce calcium mobilization”. Turning to SLIAKV [ENMD-1011], the “Calcium mobilization / PAR-2 signaling activity (in words)” value was “robust signaling activity”. On to SLIGKA [ENMD-1013], for which the “Calcium mobilization / PAR-2 signaling activity (in words)” value is “robust signaling activity”. Turning to SLIGKV [ENMD-1003, reference compound], the “Calcium mobilization / PAR-2 signaling activity (in words)” value is “typical spike of calcium release followed by degradation of signal”.

A further experiment relates to PAR-2. Description: Inhibition of PAR-2 activating peptide (AP2) calcium signaling in cells pretreated with antagonist. The settings on record: peptides; AUC of calcium mobilization treated/control; initially screened at 1 mM compound. In kind it is cell-based, human. Further details: key to PAR-2 AP2 Signaling Treated/Control (T/C) / PAR-2 AP2 Signaling Treated/Control: AUC of calcium mobilization, treated ÷ control wells. In outline:
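LLC cells loaded with Fluo-4 (4 uM final), and U87-MG glioma cells loaded with FLIPR Calcium 3 dye with 2.5 mM probenecid, were pretreated with antagonist, then stimulated with PAR-2 activating peptide. Initial screening was at 1 mM. Calcium AUC of treated over control wells is reported as T/C.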
With LIGD [ENMD-1045], the “PAR-2 AP2 Signaling Treated/Control (T/C)” value is given as 0.39.

LIGE [ENMD-1046]: the “PAR-2 AP2 Signaling Treated/Control (T/C)” value is 0.34. Same read-out and setting: the figure for LIGH [ENMD-1054] is 0.83; for LIGK-amide (LIGK-NH2) [ENMD-1020] it is 0.54. The same measure, in the same setting: under LIGM [ENMD-1064] stands 1.19; under LIGN [ENMD-1047], 0.88; under LIGQ [ENMD-1048], 0.59. Regarding LIGR [ENMD-1022], the “PAR-2 AP2 Signaling Treated/Control (T/C)” value was 0.26. Turning to LIGS [ENMD-1049], the “PAR-2 AP2 Signaling Treated/Control (T/C)” value is on record as 0.64. Take LIGT [ENMD-1050]: the “PAR-2 AP2 Signaling Treated/Control (T/C)” value is given as 0.70. In the case of LIGY [ENMD-1051], the “PAR-2 AP2 Signaling Treated/Control (T/C)” value was 0.83. Regarding LIPK [ENMD-1052], the “PAR-2 AP2 Signaling Treated/Control (T/C)” value worked out at 0.89. With LPGK [ENMD-1053], the “PAR-2 AP2 Signaling Treated/Control (T/C)” value came to 0.89. As for dI-dG-dK [ENMD-1383], the “PAR-2 AP2 Signaling Treated/Control (T/C)” value came out at 0.48. Still for that read-out and setting: under dL-dI-dG-dK [ENMD-1032] stands 0.44.

The experiment is the same for the next values; noted with them: pretreated cells, then P2AP.
For LIGKV [ENMD-1007], the “PAR-2 antagonist activity in vitro (in words)” value was “demonstrated antagonist activity”.
